Like-named read-outs stand apart in the source and are kept apart here.
How the values were obtained:
[1] = biological target: Human CB1R (Cannabinoid receptor 1) (Homo sapiens, UniProt P21554); experiment: CB-1 in vitro cAMP (HTRF) assay; type: cell-based; conditions: HEK cells, cAMP HTRF, 250 nM forskolin; mean where tested more than once; read-out: CB1 HEK_cAMP EC50
How it was run: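 Intracellular cAMP from HTRF ratio (d2-cAMP vs Eu-cryptate anti-cAMP), converted to nM via per-plate standards, in stable human CB1R HEK-293 cells.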

[2] = Mouse Fast PK/BBB: plasma and brain concentration; type: in vivo, Male C57bl/6j mice; conditions: mice; for concentration at 1 h / concentration at 4 h: male, C57bl/6j, mouse; for concentration at 4 h / Brain Mean Conc. ± Std. Dev: 4 hr
Experimental: (§1) Male Sprague Dawley rats are ordered from Charles River (225-250 gm upon arrival). They are fed standard chow diet (Purina 5001) and housed 2 per cage. Male C57bl/6j mice are ordered from Charles River at 22-25 g and housed 3 per cage. They are fed standard chow (Purina 5001). All animals are housed in a temperature-controlled room with 12-hour light/dark cycle. Animals are given food and water ad libitum, except as noted.
(§2) Test compounds are administered by oral gavage (5 ml kg^−1 or 10 ml kg^−1).
Male C57bl/6j mice were dosed with test compounds at 20 or 30 mg/kg. Plasma was collected via retro-orbital bleeding at 1 hr and 4 hrs after dosing. Whole brain without cerebellum was collected at 4 hrs after dosing. Wet brain weight was recorded before freezing. Brains were homogenized in saline and sent for analysis for determination of concentration of test compound.
Representative compounds of formula (I) of the present invention were tested according to the procedure described above, with results as listed in Table BIO-2 below.

DIO mice = experiment: Five-Day Study in DIO Mice: food intake, body weight, plasma insulin, fed blood glucose; type: in vivo; conditions: for Plasma Insulin: 30 mg/kg, day 5, two hours after dosing, (Std Err)
Text: Male 14-20-week old diet-induced obese mice are ordered from Taconic. Mice were started on a 60% fat diet (D12492, Research Diets, New Brunswick, N.J.) at 6 weeks of age. Mice are single-housed.
as §1, §2

[3] = plasma, dose 20 mg/kg oral, read-out: Plasma Mean Conc. ± Std. Dev
[4] = plasma, dose 30 mg/kg oral, read-out: Plasma Mean Conc. ± Std. Dev
[5] = brain (whole brain without cerebellum), dose 20 mg/kg oral, read-out: Brain Mean Conc. ± Std. Dev
[6] = 30 mg/kg daily oral, Day 1, (Std Err)
[7] = 30 mg/kg daily oral, Day 2, (Std Err)
[8] = 30 mg/kg daily oral, Day 3, (Std Err)
[9] = 30 mg/kg daily oral, Day 4, (Std Err)
[10] = 30 mg/kg group, Day 0, (Std Err)
[11] = brain (whole brain without cerebellum), dose 30 mg/kg oral, read-out: Brain Mean Conc. ± Std. Dev

Chain of Human CB1R (Cannabinoid receptor 1) (P21554 whole entry): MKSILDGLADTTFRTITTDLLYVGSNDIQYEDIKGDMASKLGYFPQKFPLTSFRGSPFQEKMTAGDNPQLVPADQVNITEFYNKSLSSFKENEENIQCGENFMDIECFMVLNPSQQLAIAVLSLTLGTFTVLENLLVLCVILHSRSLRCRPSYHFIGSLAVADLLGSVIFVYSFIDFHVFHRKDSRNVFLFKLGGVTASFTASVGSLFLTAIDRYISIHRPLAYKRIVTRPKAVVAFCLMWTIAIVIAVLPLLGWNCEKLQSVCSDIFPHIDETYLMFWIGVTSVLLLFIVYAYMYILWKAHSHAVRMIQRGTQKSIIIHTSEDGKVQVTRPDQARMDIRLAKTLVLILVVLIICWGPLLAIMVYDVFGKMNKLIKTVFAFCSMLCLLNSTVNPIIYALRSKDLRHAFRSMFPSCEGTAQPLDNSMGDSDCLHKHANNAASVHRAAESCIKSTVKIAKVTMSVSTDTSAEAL

Row | SMILES | EC50 [1] [nM] | concentration at 1 h [2, 3] [ng/mL] | concentration at 4 h [2, 3] [ng/mL] | concentration at 1 h [2, 4] [ng/mL] | concentration at 4 h [2, 4] [ng/mL] | concentration at 4 h [2, 5] [ng/mL] | also measured
1 | O=C(O)c1cccc(S(=O)(=O)N2CCC(n3c(C4CC4)nc4ccc(C(c5ccc(Cl)cc5)c5ccc(Cl)cc5)cc43)CC2)c1 [Example 242] | 18 | 789 | 62.1 ± 20 | – | – | – | Brain Mean Conc. ± Std. Dev ([2]; dose 20 mg/kg oral): BLOQ ± NA
2 | O=C(O)c1cccc(CN2CCC(n3c(C4CC4)nc4ccc(C(c5ccc(Cl)cc5)c5ccc(Cl)cc5)cc43)CC2)n1 [Example 125] | 17.7 | – | – | 4490 ± 1010 | 390 ± 157 | – | Brain Mean Conc. ± Std. Dev ([2]; dose 30 mg/kg oral): BLOQ ± NA
3 | O=C(O)c1ccc(CN2CCC(n3c(C4CC4)nc4ccc(C(c5ccc(Cl)cc5)c5ccc(Cl)cc5)cc43)CC2)o1 [Example 129] | 19.8 | – | – | 1370 ± 749 | 84.6 ± 62.9 | – | Brain Mean Conc. ± Std. Dev ([2]; dose 30 mg/kg oral): BLOQ ± NA
4 | CCc1nc2ccc(C(c3ccc(Cl)cc3)c3ccc(Cl)cc3)cc2n1C1CCN(S(=O)(=O)C(F)(F)F)CC1 [Example 328] | 8.4 | 2640 ± 337 | 1600 ± 109 | – | – | 99.3 ± 13.3 | Mean Body Weight (DIO mice; [6]): 41.2 (0.7) Grams; Mean Daily Food Intake (DIO mice; [6]): 0.5 (0.1) Grams; Mean Body Weight (DIO mice; [7]): 39.6 (0.6) Grams; Mean Daily Food Intake (DIO mice; [7]): 0.5 (0.1) Grams; Mean Body Weight (DIO mice; [8]): 38.6 (0.6) Grams; Mean Daily Food Intake (DIO mice; [8]): 0.7 (0.1) Grams; Fed Blood Glucose (DIO mice; [9]): 154 (7) mg/dL; Mean Body Weight (DIO mice; [9]): 38.2 (0.7) Grams; Mean Daily Food Intake (DIO mice; [9]): 1.2 (0.1) Grams; Fed Blood Glucose (DIO mice; [10]): 183 (9) mg/dL; Mean Body Weight (DIO mice; [10]): 43.6 (0.7) Grams; Plasma Insulin (DIO mice): 1.31 (0.13) ng/mL
5 | O=C(O)c1ccc(S(=O)(=O)N2CCC(n3c(C4CC4)nc4ccc(C(c5ccc(Cl)cc5)c5ccc(Cl)cc5)cc43)CC2)o1 [Example 232] | 17.6 | – | – | 81.9 ± 22.7 | 7.11 ± 6.55 | – | Brain Mean Conc. ± Std. Dev ([2]; dose 30 mg/kg oral): BLOQ ± NA
6 | CCc1nc2ccc(C(c3ccc(Cl)cc3)c3ccc(Cl)cc3)cc2n1CC1CCN(S(=O)(=O)C(F)(F)F)CC1 [Example 315] | 5.3 | 2870 ± 441 | 785 ± 191 | – | – | 48.4 ± 0.4 | –
7 | O=C(O)c1ccc(S(=O)(=O)N2CCC(n3c(C4CC4)nc4ccc(C(c5ccc(Cl)cc5)c5ccc(Cl)cc5)cc43)CC2)cc1 [Example 276] | 9.3 | 227 ± 67.2 | 27.7 ± 13.1 | – | – | – | Brain Mean Conc. ± Std. Dev ([2]; dose 20 mg/kg oral): BLOQ ± NA
8 | O=S(=O)(N1CCC(n2c(C3CC3)nc3ccc(C(c4ccc(Cl)cc4)c4ccc(Cl)cc4)cc32)CC1)C(F)(F)F [Example 335] | 5.6 | 3940 ± 480 | 2260 ± 822 | – | – | 104 ± 19 | Mean Body Weight (DIO mice; [6]): 42.8 (0.8) Grams; Mean Daily Food Intake (DIO mice; [6]): 0.4 (0.1) Grams; Mean Body Weight (DIO mice; [7]): 41.4 (0.7) Grams; Mean Daily Food Intake (DIO mice; [7]): 0.5 (0.1) Grams; Mean Body Weight (DIO mice; [8]): 40.3 (0.6) Grams; Mean Daily Food Intake (DIO mice; [8]): 0.5 (0.1) Grams; Fed Blood Glucose (DIO mice; [9]): 160 (6) mg/dL; Mean Body Weight (DIO mice; [9]): 39.4 (0.6) Grams; Mean Daily Food Intake (DIO mice; [9]): 1.1 (0.1) Grams; Fed Blood Glucose (DIO mice; [10]): 187 (9) mg/dL; Mean Body Weight (DIO mice; [10]): 45.4 (0.7) Grams; Plasma Insulin (DIO mice): 2.72 (0.61) ng/mL
9 | COc1ccc(C(c2ccc(OC)cc2)c2ccc3nc(C4CCC4)n(C4CCN(S(=O)(=O)C(F)(F)F)CC4)c3c2)cc1 [Example 320] | 69.3 | 2900 ± 245 | 1610 ± 207 | – | – | 167 ± 9.4 | –
10 | O=S(=O)(N1CCC(Cn2c(C3CC3)nc3ccc(C(c4ccc(Cl)cc4)c4ccc(Cl)cc4)cc32)CC1)C(F)(F)F [Example 316] | 2.8 | 3980 ± 448 | 247 ± 36 | – | – | 30.2 ± 5.2 | –
11 | CCc1nc2ccc(C(c3ccc(Cl)cc3)c3nccs3)cc2n1C1CCN(S(=O)(=O)C(F)(F)F)CC1 (stereo not drawn) [Example 400] | 6 | 1550 ± 65.7 | 947 ± 191 | – | – | 292 ± 61 | –
12 | O=C(O)c1csc(S(=O)(=O)N2CCC(n3c(C4CC4)nc4ccc(C(c5ccc(Cl)cc5)c5ccc(Cl)cc5)cc43)CC2)c1 [Example 221] | 8.5 | 160 ± 69.7 | 33.8 ± 11.2 | – | – | – | Brain Mean Conc. ± Std. Dev ([2]; dose 20 mg/kg oral): BLOQ ± NA
13 | O=C(O)c1cc(F)cc(CN2CCC(n3c(C4CC4)nc4ccc(C(c5ccc(Cl)cc5)c5ccc(Cl)cc5)cc43)CC2)c1 [Example 89] | 7.2 | – | – | 7190 ± 488 | 4430 ± 227 | – | concentration at 4 h [2, 11]: 129 ± 33.2 ng/mL
14 | O=C(O)c1ccc(CN2CCC(n3c(C4CC4)nc4ccc(C(c5ccc(Cl)cc5)c5ccc(Cl)cc5)cc43)CC2)nc1 [Example 124] | 34.9 | – | – | 2020 ± 555 | 297 ± 107 | – | Brain Mean Conc. ± Std. Dev ([2]; dose 30 mg/kg oral): BLOQ ± NA
15 | O=C(O)c1cccc(CN2CCC(n3c(C4CC4)nc4ccc(C(c5ccc(Cl)cc5)c5ccc(Cl)cc5)cc43)CC2)c1 [Example 148] | 9.6 | – | – | 13500 ± 273 | 7750 ± 3100 | – | concentration at 4 h [2, 11]: 417 ± 50 ng/mL
16 | O=S(=O)(c1cccc(O)c1)N1CCC(n2c(C3CC3)nc3ccc(C(c4ccc(Cl)cc4)c4ccc(Cl)cc4)cc32)CC1 [Example 259] | 3.7 | 1420 ± 489 | 436 ± 83 | – | – | – | Brain Mean Conc. ± Std. Dev ([2]; dose 20 mg/kg oral): BLOQ ± NA
17 | O=C(O)c1ccc(F)c(CN2CCC(n3c(C4CC4)nc4ccc(C(c5ccc(Cl)cc5)c5ccc(Cl)cc5)cc43)CC2)c1 [Example 92] | 15.9 | – | – | 11400 ± 2020 | 5190 ± 277 | – | concentration at 4 h [2, 11]: 89.2 ± 27.7 ng/mL
18 | O=S(=O)(N1CCC(n2c(C3CCC3)nc3ccc(C(c4ccc(Cl)cc4)c4ccc(Cl)cc4)cc32)CC1)C(F)(F)F [Example 318] | 6.9 | 5880 ± 1290 | 2130 ± 245 | – | – | 69.4 ± 4.4 | –
